Results on 6 molecules are retold here after patent publication US10264976B2, “Biocompatible flavonoid compounds for organelle and cell imaging” (The University of Akron, priority 2015, dated 2019).

Data set [1] relates to mitochondria in CCCP-treated hMSCs. Put plainly: Effects of CCCP on uptake of dyes. It counts as cell-based, human. As to conditions: for specificity to mitochondria after CCCP treatment / uptake / imaging signal (sensitivity) after CCCP treatment: hMSCs pre-treated with 10 μM CCCP for 30 min, 5 μM dye, 25 nM MT, 25 min. An excerpt:
Mitochondria can continuously oxidize substrates and maintain a proton gradient across the lipid bilayer with very large membrane potential (−180 mV). The membrane potential as the major driving force enables the entrance and accumulation of the cationic species into mitochondria rather than cell plasma. CCCP is an uncoupler that causes rapid acidification of mitochondria and dysfunction of ATP synthase resulting in the decrease of mitochondrial membranes potential. To confirm the tolerances of MC-Mito1 and MC-Mito2, carbonyl cyanide m-chlorophenylhydrazone (CCCP) was used to treat the cells prior to the staining procedure.
It was expected because CCCP-induced decrease of membranes potential will severely affect the direction and accumulation of cationic mitochondrial probes. The most of commercial mitochondrial probes are suffered by the similar limitation. […] Compared with MC-Mito1, MC-Mito2 has longer hydrophobic linker between the flavone dye and the cation. Since mitochondrial membrane is composed of phospholipid bilayers and proteins, the stronger lipophilicity has been supposed to play an important role in retaining the specificity of MC-Mito2 in CCCP-treated cells.
The hMSCs were treated with 10 μM carbonyl cyanide m-chlorophenylhydrazone (CCCP) for 30 min. and then were washed with fresh medium. After that, the cells were incubated with 5 μM MC-Mito1 and 25 nM MT, 5 μM MC-Mito2 and 25 nM MT for 25 min at 37° C., respectively. After staining, the cells were imaged by microscope without PBS solution washing procedure.

A further data set deals with mitochondria in hMSCs. Nature of the data set: Co-staining with Mitotracker red CMXRos (subcellular distribution). It counts as cell-based, human. As to conditions: 5 μM dye and 25 nM MT, 25 min. As to the method:
To determine the subcellular distribution of the probes in living cells, the MT were co-incubated with MC-Mito1 and MC-Mito2, respectively. […] Despite that the decrease of membranes potential will severely affect the direction and accumulation of cationic mitochondrial probes.
Human mesenchymal stem cells (hMSCs) (Lonza, Walkersville, Md.) were cultured in serum-containing MSCBM medium (Lonza) supplemented with MSCGM SingleQuots (Lonza) according to manufacturer's specifications. hMSCs (Passage 5) were seeded at a density of 5.0×10^4 cell/cm^2. For co-staining experiments, the hMSCs were seeded on 12-well plate, cultured in MSCBM medium (Lonza) supplemented with MSCGM SingleQuots (Lonza), and incubated with 5 μM MC and 25 nM Mitotracker® red CMXRos (MT), 5 μM MC-Br and 25 nM MT, 5 μM MC-Mito1 and 25 nM MT, 5 μM MC-Mito2 and 25 nM MT for 25 min at 37° C., respectively. Each well contains 1 ml of medium and 0.05 ml DMSO (dissolving probe). The cell imaging was obtained on a Zeiss inverted fluorescence microscopy with X-Cite Series 120Q. The blue channel filter: excitation 365 nm, beam splitter FT 395 nm, emission 445/50 nm. The green channel filter: excitation 450-490 nm, beam splitter FT 510 nm, emission 515-565 nm. The red channel filter: excitation 587/25 nm, beam splitter FT 605 nm, emission 647/70 nm.

Data set [2] in a line: Fluorescence quantum yield (rhodamine 6G standard). Type of data set: physicochemical. The settings on record: rhodamine 6G in ethanol as reference; reported after BSA addition experiment. An excerpt:
The fluorescence quantum yields were obtained using rhodamine 6G (sigma) as the standard (Φfl=0.95, ethanol). The fluorescence quantum yields can be calculated by using the following Eq: Φs=Φr×(Ar×ns^2×Fs)/(As×nr^2×Fr) where the subscripts s and r refer to the sample and the standard, respectively. Φ is the quantum yield, F is the integrated emission intensity, A is the absorbance, and n is the refractive index. Zebrafish Breeding and Imaging

Data set [3] deals with bovine serum albumin (BSA) (Bos taurus, UniProt P02769). Put plainly: Fluorescence response upon addition of bovine serum albumin. Type of data set: binding. The settings on record: 2 equivalents of BSA; 2 μM probe, 1 mM HEPES buffer (1% DMSO); at 495 nm (MC-Mito1) / 490 nm (MC-Mito2). On the procedure: FIG. 4B provides a graph showing the fluorescence intensity changes of MC-Mito1 in the presence of increasing concentrations of BSA in 1 mM HEPES buffer (1% DMSO). [MC-Mito1]=[MC-Mito2]=2 μM, [BSA]=0˜4 μM. λex=400 nm.
FIG. 11 is a chart showing fluorescence spectra of DMAF ([DMAF]=10 μM, 1 mM HEPES buffer containing 1% DMSO, pH=7.4) upon addition of different concentration of BSA ([BSA]=0-10 μM, 1 mM HEPES).
MC-Mito1 and MC-Mito2 were nearly non-fluorescent in water (QYs <1%), due to specific H-bonding interaction of water solvents with H-bond acceptor carbonyl groups in flavone skeleton. However, upon addition of bovine serum albumin (BSA) into probe water solution, the fluorescence intensity increased sharply (FIG. 4A-D). After addition of 2 equivalent of BSA, the fluorescence intensity of MC-Mito1 at 495 nm was enhanced by about 17-fold, which was accompanied with a large blue-shift (from 540 nm to 495 nm, FIGS. 4A and 4B). […] By using rhodamine 6G in ethanol (QY=95%) as a reference, the fluorescence quantum yield (QY) of MC-Mito1 and MC-Mito2 were determined to be 28% and 33%, respectively. […] The high signal-to-noise ratio (>10) enables the simple wash-free in vivo fluorescence imaging. […]

For data set [4], the system named is hMSCs. Put plainly: Cytotoxicity determined by MTT method. Type of data set: cell-based, human. The settings on record: for cell viability: hMSCs, 0, 2, 5, 10 μM, 24 h. As to the method: Before the application for cell imaging, the cytotoxicity of MC-Mito1 and MC-Mito2 were evaluated by the widely used MTT assay to evaluate the tolerance of sensors to their working concentrations. The samples were incubated with 0, 2, 5, 10 μM MC-Mito1, MC-Mito2 and Mitotracker® red CMXRos (MT) for 24 h, respectively (FIG. 5). […] In contrast, only less than 10% of the cells were viable after incubation with 5 μM of commercial mitochondrial dye MT for 24 hours. […] The hMSCs were seeded in 12-well plates at a density of 5.0×10^4 cell/cm^2. After 24 h incubation, the cells were exposed to a series of doses of probe MC-Mito1 or MC-Mito2, and MT at 37° C. The concentration of MT (0, 2, 5, 10 μM) was similar as reported in literature.^28 After 24 hours, MTT solution (sigma) was added and kept 3 h in the incubator. MTT solubilization solution was then added into each well and the plate was gently shaken for 10 min at room temperature. The absorbance of MTT in the sample well was determined by subtracting the absorbance of the sample well from corresponding control well. Cell viability was expressed by the ratio of the absorbance of MTT in the sample wells to that of the cells incubated with culture medium only.

Data set [5] in a line: UV absorption and fluorescence spectra of the dyes. As to conditions: for Stokes shift: in DMSO; for absorption maxima / emission maxima: in DMSO solution.
Data set [6] relates to hMSCs. Put plainly: Cell staining efficiency without washing process. It counts as cell-based, human. As to the method:
To assess their cell staining efficiencies, the hMSCs cells were incubated with MT, MC-Mito1 and MC-Mito2, respectively. Cell staining was continuously recorded in 3 min, 10 min and 25 min without washing process. It was found MC-Mito1 and MC-Mito2 quickly stained the living cells in 10 mins. In contrast, the MT acquired longer time to efficiently stain cells. The fluorescence signal of MC-Mito1 and MC-Mito2 from the ‘blue channel’ on fluorescence microscope (420-470 nm) were confined in cells with a negligible background signal from the culture medium, supporting the hypothesis that the flavone dyes gave higher emission in low-polar environment. Generally, the S/N ratios in fluorescent images were above 3, which could be considered acceptable for the discrimination of mitochondria. Therefore, this wash-free method could be a useful probe for real-time monitor of mitochondrial changes.
Human mesenchymal stem cells (hMSCs) (Lonza, Walkersville, Md.) were cultured in serum-containing MSCBM medium (Lonza) supplemented with MSCGM SingleQuots (Lonza) according to manufacturer's specifications. hMSCs (Passage 5) were seeded at a density of 5.0×10^4 cell/cm^2. […] The cell imaging was obtained on a Zeiss inverted fluorescence microscopy with X-Cite Series 120Q. […]

Sequence of bovine serum albumin (BSA) (P02769 25-607): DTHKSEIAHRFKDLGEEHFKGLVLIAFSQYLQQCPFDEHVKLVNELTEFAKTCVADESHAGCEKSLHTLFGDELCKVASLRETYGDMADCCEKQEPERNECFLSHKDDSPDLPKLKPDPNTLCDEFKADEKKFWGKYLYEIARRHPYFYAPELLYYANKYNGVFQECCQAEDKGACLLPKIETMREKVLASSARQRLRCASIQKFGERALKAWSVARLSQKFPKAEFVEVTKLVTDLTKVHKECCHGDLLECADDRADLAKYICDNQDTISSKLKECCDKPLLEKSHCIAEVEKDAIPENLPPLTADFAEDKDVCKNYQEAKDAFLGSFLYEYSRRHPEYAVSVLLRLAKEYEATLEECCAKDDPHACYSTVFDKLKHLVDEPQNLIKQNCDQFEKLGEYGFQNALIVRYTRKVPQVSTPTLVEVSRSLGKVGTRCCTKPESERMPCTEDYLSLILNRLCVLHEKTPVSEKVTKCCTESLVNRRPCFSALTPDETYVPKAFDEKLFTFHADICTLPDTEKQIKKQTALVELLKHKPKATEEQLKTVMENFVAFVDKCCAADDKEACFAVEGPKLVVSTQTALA

For `N#CC(C#N)=NNc1cccc(Cl)c1` [CCCP, carbonyl cyanide m-chlorophenylhydrazone, reference compound], in data set [1] (hMSCs, 10 μM CCCP for 30 min), the mitochondrial morphology result is “mostly transformed to small and dispersed fragments”.

Turning to `O=c1c(O)c(-c2ccc(N3CCOCC3)cc2)oc2ccccc12` [MC, 3-hydroxy-2-(4-morpholinophenyl)-4H-chromen-4-one], in the data set on mitochondria in hMSCs, the “co-localization with MT (mitochondria)” value is listed as “almost no co-localization with MT”.

`O=c1c(OCCCCCCBr)c(-c2ccc(N3CCOCC3)cc2)oc2ccccc12` [MC-Br, 3-(6-bromohexyloxy)-2-(4-morpholinophenyl)-4H-chromen-4-one]: the “co-localization with MT (mitochondria)” value in the data set with mitochondria in hMSCs is given as “almost no co-localization with MT”.

For `O=c1c(OCCC[P+](c2ccccc2)(c2ccccc2)c2ccccc2)c(-c2ccc(N3CCOCC3)cc2)oc2ccccc12.[Br-]` [MC-Mito1, (3-(2-(4-morpholinophenyl)-4-oxo-4H-chromen-3-yloxy)propyl)triphenylphosphonium bromide], the “fluorescence quantum yield (QY)” value in data set [2] was determined as 28%. The fluorescence intensity enhancement entry in data set [3] was “about 17 fold”. Also, the cell viability with hMSCs [4] is reported as ~100%. In addition, the “co-localization with MT (mitochondria)” value in the data set on mitochondria in hMSCs is reported as “matched those stained with MT (red channel) very well”. In data set [1], the “specificity to mitochondria after CCCP treatment” value (“specificity to mitochondria” for short) was “almost no more specificity to mitochondria” and the “uptake / imaging signal (sensitivity) after CCCP treatment” value (from here on “uptake / imaging signal (sensitivity)”) was “extremely weaker imaging signal than that in normal cells”. In data set [5], the Stokes shift was ~127 nm, the absorption maxima was determined as 373 nm and the emission maxima was 500 nm.

Take `O=c1c(OCCCCCC[P+](c2ccccc2)(c2ccccc2)c2ccccc2)c(-c2ccc(N3CCOCC3)cc2)oc2ccccc12.[Br-]` [MC-Mito2, (6-(2-(4-morpholinophenyl)-4-oxo-4H-chromen-3-yloxy)hexyl)triphenylphosphonium bromide]: the “fluorescence quantum yield (QY)” value in data set [2] is 33%. Besides, the fluorescence intensity enhancement entry in data set [3] is “about 55 fold”. Moreover, the cell viability in the data set on hMSCs [4] was ~100%. The “co-localization with MT (mitochondria)” value in the data set on mitochondria in hMSCs is given as “matched well with MT”. Moreover, in data set [1], the “specificity to mitochondria” value is “perfectly retained” and the “uptake / imaging signal (sensitivity)” value is “perfectly retained”. Further, in data set [5], the Stokes shift is given as ~127 nm, the absorption maxima was determined as 373 nm and the emission maxima worked out at 500 nm.

`ClCc1ccc(C2=c3cc4c5c(c3Oc3c2cc2c6c3CCCN6CCC2)CCC[N+]=5CCC4)cc1.[Cl-]` [MT, reference compound]: the viable cells result with hMSCs [4] (hMSCs, 5 μM, 24 hours) was “less than 10%”. Besides, the “time to stain living cells” value with hMSCs [6] is on record as “longer time”. Also, in data set [1], the “specificity to mitochondria” value is “specificity became worse” and the “uptake / imaging signal (sensitivity)” value is on record as “decreased by more than half”.
